This assay has as its target T1, β-galactosidase from Bacillus circulans (Biolacta N-5) (Niallia circulans, UniProt E5RWQ2).
T1 construct: gene bga; commercial Biolacta N-5 (Daiwa Kasei), partially purified; several isoforms, called monomeric
Description: batch hydrolysis, HPLC. The format is biochemical. Particulars: soluble enzyme together with P1 and P2; Mozzarella whey lactose, 50 °C, 6 h. An excerpt: batch hydrolysis, HPLC on β-galactosidase from Bacillus circulans (Biolacta N-5)

1 compound from PMC6155631, “Immobilized Trienzymatic System with Enhanced Stabilization for the Biotransformation of Lactose” (Molecules : A Journal of Synthetic Chemistry and Natural …, 2017) can be followed below.

T1 sequence (E5RWQ2 24-1737): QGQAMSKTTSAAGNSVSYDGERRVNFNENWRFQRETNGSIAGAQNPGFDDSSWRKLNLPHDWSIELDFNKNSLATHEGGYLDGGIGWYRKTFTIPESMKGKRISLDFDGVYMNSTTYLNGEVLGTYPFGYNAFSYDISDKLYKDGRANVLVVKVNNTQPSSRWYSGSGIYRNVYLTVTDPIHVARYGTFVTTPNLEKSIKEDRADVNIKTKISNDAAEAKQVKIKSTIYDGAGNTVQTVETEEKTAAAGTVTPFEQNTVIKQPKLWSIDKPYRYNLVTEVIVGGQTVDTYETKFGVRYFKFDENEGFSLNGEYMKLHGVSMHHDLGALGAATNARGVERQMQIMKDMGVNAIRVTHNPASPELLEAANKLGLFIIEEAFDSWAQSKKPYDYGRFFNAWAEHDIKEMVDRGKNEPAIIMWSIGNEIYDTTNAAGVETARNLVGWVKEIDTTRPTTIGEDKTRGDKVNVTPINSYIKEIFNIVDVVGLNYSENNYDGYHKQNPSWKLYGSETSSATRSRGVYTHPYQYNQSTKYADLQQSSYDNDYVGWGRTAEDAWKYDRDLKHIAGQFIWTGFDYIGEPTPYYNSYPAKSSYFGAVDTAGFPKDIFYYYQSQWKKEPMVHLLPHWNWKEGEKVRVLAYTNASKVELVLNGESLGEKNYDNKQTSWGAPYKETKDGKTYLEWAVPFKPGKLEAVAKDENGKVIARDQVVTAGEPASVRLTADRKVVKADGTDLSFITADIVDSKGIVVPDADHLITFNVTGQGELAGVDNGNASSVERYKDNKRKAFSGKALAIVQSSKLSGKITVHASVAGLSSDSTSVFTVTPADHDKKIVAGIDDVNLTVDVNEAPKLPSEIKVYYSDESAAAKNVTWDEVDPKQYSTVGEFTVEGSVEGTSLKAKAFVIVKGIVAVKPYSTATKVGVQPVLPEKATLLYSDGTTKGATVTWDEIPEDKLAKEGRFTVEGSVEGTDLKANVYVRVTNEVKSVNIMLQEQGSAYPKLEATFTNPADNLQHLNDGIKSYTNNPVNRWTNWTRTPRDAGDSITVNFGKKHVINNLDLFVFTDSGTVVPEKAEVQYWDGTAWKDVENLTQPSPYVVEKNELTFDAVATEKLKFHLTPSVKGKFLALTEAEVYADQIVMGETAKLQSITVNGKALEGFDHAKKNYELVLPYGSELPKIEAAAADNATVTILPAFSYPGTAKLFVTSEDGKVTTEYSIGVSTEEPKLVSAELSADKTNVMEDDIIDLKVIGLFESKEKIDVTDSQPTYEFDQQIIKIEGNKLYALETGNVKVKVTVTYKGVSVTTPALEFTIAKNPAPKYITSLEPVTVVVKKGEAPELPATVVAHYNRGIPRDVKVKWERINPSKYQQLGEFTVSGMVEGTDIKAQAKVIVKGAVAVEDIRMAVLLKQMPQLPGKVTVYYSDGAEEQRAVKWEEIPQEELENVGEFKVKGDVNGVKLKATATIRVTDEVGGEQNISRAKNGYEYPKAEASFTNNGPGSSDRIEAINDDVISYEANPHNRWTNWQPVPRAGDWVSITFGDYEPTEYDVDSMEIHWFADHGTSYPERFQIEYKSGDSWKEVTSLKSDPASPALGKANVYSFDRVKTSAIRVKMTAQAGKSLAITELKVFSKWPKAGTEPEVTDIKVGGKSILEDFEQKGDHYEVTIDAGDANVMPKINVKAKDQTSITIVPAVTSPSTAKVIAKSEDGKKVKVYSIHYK

On to `OC[C@H]1O[C@@H](O[C@H]2[C@H](O)[C@@H](O)C(O)O[C@@H]2CO)[C@H](O)[C@@H](O)[C@H]1O` (stereo partly shown) [lactose], for which the “Lactolysis (%)” value was determined as 76 ± 1%.
